From PubChem BioAssay (NCI)
“And” between values parts separate entries of the source, which are not always exact repeats. Identical values can stand only once.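 Dose response: 5 concentrations. Exposure: 48 h. Format: 96-well plates. Endpoint: linear interpolation; highest concentration if not reached. GI50 marks 50% less growth. At the TGI there is no net growth.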

Experiments:
Assay in all cases: growth of human tumour cells (NCI), 48 h
UO-31 renal = tested on: UO-31 renal
A549 NSCLC = tested on: A549 NSCLC
ACHN renal = tested on: ACHN renal
OVCAR-8 ovarian = tested on: OVCAR-8 ovarian
HS 578T breast = tested on: HS 578T breast
SN12C renal = tested on: SN12C renal
SK-OV-3 ovarian = tested on: SK-OV-3 ovarian
SK-MEL-5 melanoma = tested on: SK-MEL-5 melanoma
SNB-75 CNS = tested on: SNB-75 CNS
HL-60(TB) leukemia = tested on: HL-60(TB) leukemia
COLO 205 colon = tested on: COLO 205 colon
UACC-257 melanoma = tested on: UACC-257 melanoma
OVCAR-3 ovarian = tested on: OVCAR-3 ovarian
RPMI-8226 leukemia = tested on: RPMI-8226 leukemia
HCC-2998 colon = tested on: HCC-2998 colon
K-562 leukemia = tested on: K-562 leukemia
CAKI-1 renal = tested on: CAKI-1 renal
MDA-MB-231 breast = tested on: MDA-MB-231 breast
U251 CNS = tested on: U251 CNS
SNB-19 CNS = tested on: SNB-19 CNS
IGROV1 ovarian = tested on: IGROV1 ovarian
MALME-3M melanoma = tested on: MALME-3M melanoma
KM12 colon = tested on: KM12 colon
T-47D breast = tested on: T-47D breast
NCI-H522 lung = tested on: NCI-H522 lung
SF-295 CNS = tested on: SF-295 CNS
EKVX NSCLC = tested on: EKVX NSCLC
SF-268 CNS = tested on: SF-268 CNS
HOP-92 NSCLC = tested on: HOP-92 NSCLC
SK-MEL-2 melanoma = tested on: SK-MEL-2 melanoma

## COC(=O)c1ccc2c(C(=Nc3ccc(N(C)C(=O)CN4CCN(C)CC4)cc3)c3ccccc3)c(O)[nH]c2c1
UO-31 renal
  GI50: 1.2 µM and 0.739 µM
  TGI: 5.76 µM and > 34 µM
A549 NSCLC
  GI50: 2.74 µM and 2.79 µM
  TGI: > 100 µM
ACHN renal
  GI50: 1.58 µM and 2.51 µM
OVCAR-8 ovarian
  GI50: 2.31 µM and 2.43 µM
  TGI: 27.6 µM and > 100 µM
HS 578T breast
  GI50: 0.546 µM and 0.648 µM
SN12C renal
  GI50: 1.23 µM and 0.959 µM
  TGI: 31.9 µM and > 87.6 µM
SK-OV-3 ovarian
  GI50: 12.3 µM and > 57.6 µM
  TGI: 44.1 µM and > 100 µM
SK-MEL-5 melanoma
  GI50: 3.94 µM and 2.32 µM
  TGI: 9.86 µM and 6.51 µM
SNB-75 CNS
  GI50: 0.385 µM and 0.32 µM
  TGI: 9.71 µM and 7.71 µM
HL-60(TB) leukemia
  GI50: 9.41 µM and 9.59 µM
  TGI: 32.3 µM and 32.1 µM
COLO 205 colon
  GI50: 4.32 µM and 4.41 µM
  TGI: 46.4 µM
UACC-257 melanoma
  GI50: 1.83 µM and 1.54 µM
  TGI: 4.48 µM and 3.1 µM
OVCAR-3 ovarian
  GI50: 7.08 µM and 19.9 µM
  TGI: 16.1 µM and 47 µM
RPMI-8226 leukemia
  GI50: 2.73 µM and 5.97 µM
  TGI: 9.86 µM and 20.8 µM
HCC-2998 colon
  GI50: 11.2 µM and 7.26 µM
  TGI: 30.7 µM and 73.8 µM
K-562 leukemia
  GI50: 0.224 µM and 0.466 µM
  TGI: > 100 µM
CAKI-1 renal
  GI50: 4.28 µM and 11.9 µM
  TGI: 25.3 µM and > 100 µM
MDA-MB-231 breast
  GI50: 1.91 µM and 2.5 µM
  TGI: 4.11 µM and 6.96 µM
U251 CNS
  GI50: 1.44 µM and 1.77 µM
SNB-19 CNS
  GI50: 2.6 µM and 3.55 µM
  TGI: > 100 µM
IGROV1 ovarian
  GI50: 0.839 µM and 0.967 µM
  TGI: 22.5 µM and > 100 µM
MALME-3M melanoma
  GI50: 1.37 µM and 1.44 µM
  TGI: 2.94 µM and 3.46 µM
KM12 colon
  GI50: 0.066 µM and 0.073 µM
  TGI: 2.05 µM and 1.98 µM
T-47D breast
  GI50: 3.66 µM and 16.7 µM
  TGI: 36.3 µM and > 100 µM
NCI-H522 lung
  GI50: 1.5 µM and 1.75 µM
  TGI: 3.67 µM and 5.77 µM
SF-295 CNS
  GI50: 4.46 µM and 10.8 µM
  TGI: 13.1 µM and > 56.9 µM
EKVX NSCLC
  GI50: 10.6 µM and 49.6 µM
  TGI: > 100 µM
SF-268 CNS
  GI50: 1.79 µM and 2.29 µM
HOP-92 NSCLC
  GI50: 0.69 µM and 1.56 µM
  TGI: 12.7 µM and 15 µM
SK-MEL-2 melanoma
  GI50: 8.11 µM and 3.6 µM
